Experimental data reported in patent publication US20220281848A1, “PYRAZOLE-SUBSTITUTED PYRROLIDINONES AS HERBICIDES” (FMC Corporation, priority 2019, published 2022).

Test system: plants
Assay: Test D pre-emergence, other plants of Tables D1 and D3
Assay type: in vivo
Details: preemergent, 20 DAA
Method: A formulation containing 50 g/L of the test chemical was prepared by dissolving the active ingredient in a mixture of organic solvents and emulsifier, details of which are provided in the table. This formulation was then mixed with a small, variable amount of acetone to aid dissolution, before addition of a 0.2% v/v aqueous solution of an adjuvant, as the aqueous diluent, to form an aqueous spray solution which contains a predetermined concentration of the active ingredient.
This aqueous spray solution was then sprayed onto plants including maize and wheat that had been seed treated with a herbicide safener, after one day's cultivation (for pre-emergence) or after about 12 days' cultivation (for post-emergence). The plants were grown from seeds sown in standard soil, placed in a glasshouse under controlled conditions (at 24/18° C. or 20/16° C., day/night; 16 h light; 65% humidity). After spray application the plants were then grown in a glasshouse under the same conditions and watered twice daily. After 15 d for post-emergence and 20 DAA for pre-emergence the test was evaluated (100=total damage to plant; 0=no damage to plant).

## CN1CC(c2cc(C(F)(F)F)n(C)n2)C(C(=O)Nc2cccc(F)c2F)C1=O (racemic) [Compound 3]
Rate 15
  damage to plant (100=total damage to plant; 0=no damage to plant), ABUTH: 0
  damage to plant (100=total damage to plant; 0=no damage to plant), BIDPI: 0
  damage to plant (100=total damage to plant; 0=no damage to plant), BRAPL: 20
  damage to plant (100=total damage to plant; 0=no damage to plant), CYPES: 0
  damage to plant (100=total damage to plant; 0=no damage to plant), DIGSA: 20
  damage to plant (100=total damage to plant; 0=no damage to plant), ECHCG: 20
  damage to plant (100=total damage to plant; 0=no damage to plant), ELEIN: 0
  damage to plant (100=total damage to plant; 0=no damage to plant), EPHHL: 0
  damage to plant (100=total damage to plant; 0=no damage to plant), GLXMA: 0
  damage to plant (100=total damage to plant; 0=no damage to plant), IPOHE: 0
  damage to plant (100=total damage to plant; 0=no damage to plant), ORYSA: 0
  damage to plant (100=total damage to plant; 0=no damage to plant), PANMI: 0
  damage to plant (100=total damage to plant; 0=no damage to plant), SETFA: 0
  damage to plant (100=total damage to plant; 0=no damage to plant), SIDSP: 0
  damage to plant (100=total damage to plant; 0=no damage to plant), SORVU: 0
Rate 30
  damage to plant (100=total damage to plant; 0=no damage to plant), ABUTH: 0
  damage to plant (100=total damage to plant; 0=no damage to plant), BIDPI: 0
  damage to plant (100=total damage to plant; 0=no damage to plant), BRAPL: 50
  damage to plant (100=total damage to plant; 0=no damage to plant), CYPES: 0
  damage to plant (100=total damage to plant; 0=no damage to plant), DIGSA: 90
  damage to plant (100=total damage to plant; 0=no damage to plant), ECHCG: 90
  damage to plant (100=total damage to plant; 0=no damage to plant), ELEIN: 0
  damage to plant (100=total damage to plant; 0=no damage to plant), EPHHL: 0
  damage to plant (100=total damage to plant; 0=no damage to plant), GLXMA: 0
  damage to plant (100=total damage to plant; 0=no damage to plant), IPOHE: 0
  damage to plant (100=total damage to plant; 0=no damage to plant), ORYSA: 0
  damage to plant (100=total damage to plant; 0=no damage to plant), PANMI: 0
  damage to plant (100=total damage to plant; 0=no damage to plant), SETFA: 30
  damage to plant (100=total damage to plant; 0=no damage to plant), SIDSP: 0
  damage to plant (100=total damage to plant; 0=no damage to plant), SORVU: 0
Rate 60
  damage to plant (100=total damage to plant; 0=no damage to plant), ABUTH: 0
  damage to plant (100=total damage to plant; 0=no damage to plant), BIDPI: 0
  damage to plant (100=total damage to plant; 0=no damage to plant), BRAPL: 90
  damage to plant (100=total damage to plant; 0=no damage to plant), CYPES: 0
  damage to plant (100=total damage to plant; 0=no damage to plant), DIGSA: 90
  damage to plant (100=total damage to plant; 0=no damage to plant), ECHCG: 90
  damage to plant (100=total damage to plant; 0=no damage to plant), ELEIN: 0
  damage to plant (100=total damage to plant; 0=no damage to plant), EPHHL: 0
  damage to plant (100=total damage to plant; 0=no damage to plant), GLXMA: 0
  damage to plant (100=total damage to plant; 0=no damage to plant), IPOHE: 0
  damage to plant (100=total damage to plant; 0=no damage to plant), ORYSA: 0
  damage to plant (100=total damage to plant; 0=no damage to plant), PANMI: 0
  damage to plant (100=total damage to plant; 0=no damage to plant), SETFA: 80
  damage to plant (100=total damage to plant; 0=no damage to plant), SORVU: 0
Rate 130
  damage to plant (100=total damage to plant; 0=no damage to plant), ABUTH: 0
  damage to plant (100=total damage to plant; 0=no damage to plant), BIDPI: 0
  damage to plant (100=total damage to plant; 0=no damage to plant), BRAPL: 100
  damage to plant (100=total damage to plant; 0=no damage to plant), CYPES: 0
  damage to plant (100=total damage to plant; 0=no damage to plant), DIGSA: 100
  damage to plant (100=total damage to plant; 0=no damage to plant), ECHCG: 90
  damage to plant (100=total damage to plant; 0=no damage to plant), ELEIN: 0
  damage to plant (100=total damage to plant; 0=no damage to plant), EPHHL: 0
  damage to plant (100=total damage to plant; 0=no damage to plant), GLXMA: 0
  damage to plant (100=total damage to plant; 0=no damage to plant), IPOHE: 0
  damage to plant (100=total damage to plant; 0=no damage to plant), ORYSA: 0
  damage to plant (100=total damage to plant; 0=no damage to plant), PANMI: 0
  damage to plant (100=total damage to plant; 0=no damage to plant), SETFA: 90
  damage to plant (100=total damage to plant; 0=no damage to plant), SIDSP: 0
  damage to plant (100=total damage to plant; 0=no damage to plant), SORVU: 0
Rate 250
  damage to plant (100=total damage to plant; 0=no damage to plant), ABUTH: 0
  damage to plant (100=total damage to plant; 0=no damage to plant), BIDPI: 0
  damage to plant (100=total damage to plant; 0=no damage to plant), BRAPL: 100
  damage to plant (100=total damage to plant; 0=no damage to plant), CYPES: 0
  damage to plant (100=total damage to plant; 0=no damage to plant), DIGSA: 100
  damage to plant (100=total damage to plant; 0=no damage to plant), ECHCG: 100
  damage to plant (100=total damage to plant; 0=no damage to plant), ELEIN: 0
  damage to plant (100=total damage to plant; 0=no damage to plant), EPHHL: 10
  damage to plant (100=total damage to plant; 0=no damage to plant), GLXMA: 0
  damage to plant (100=total damage to plant; 0=no damage to plant), IPOHE: 0
  damage to plant (100=total damage to plant; 0=no damage to plant), ORYSA: 0
  damage to plant (100=total damage to plant; 0=no damage to plant), PANMI: 0
  damage to plant (100=total damage to plant; 0=no damage to plant), SETFA: 90
  damage to plant (100=total damage to plant; 0=no damage to plant), SIDSP: 60
  damage to plant (100=total damage to plant; 0=no damage to plant), SORVU: 0
Rate 500
  damage to plant (100=total damage to plant; 0=no damage to plant), ABUTH: 0
  damage to plant (100=total damage to plant; 0=no damage to plant), BIDPI: 0
  damage to plant (100=total damage to plant; 0=no damage to plant), BRAPL: 100
  damage to plant (100=total damage to plant; 0=no damage to plant), CYPES: 10
  damage to plant (100=total damage to plant; 0=no damage to plant), DIGSA: 100
  damage to plant (100=total damage to plant; 0=no damage to plant), ECHCG: 100
  damage to plant (100=total damage to plant; 0=no damage to plant), ELEIN: 0
  damage to plant (100=total damage to plant; 0=no damage to plant), EPHHL: 10
  damage to plant (100=total damage to plant; 0=no damage to plant), GLXMA: 10
  damage to plant (100=total damage to plant; 0=no damage to plant), IPOHE: 0
  damage to plant (100=total damage to plant; 0=no damage to plant), ORYSA: 0
  damage to plant (100=total damage to plant; 0=no damage to plant), PANMI: 0
  damage to plant (100=total damage to plant; 0=no damage to plant), SETFA: 90
  damage to plant (100=total damage to plant; 0=no damage to plant), SIDSP: 60
  damage to plant (100=total damage to plant; 0=no damage to plant), SORVU: 0
